The test system of one assay is human CD33. More on the design: method as in Rillahan et al., 2014. To be noted: in words; ref Rillahan et al., 2014; cited from earlier work.
The next assay concerns the target T1, CD33 wild-type (Homo sapiens, UniProt P20138).
T1 construct: DNA encoding D18 to H143 of human CD33; made in house
Kind of assay: surface plasmon resonance (SPR), CD33 wild-type V-set domain. It is filed as binding. To be noted: P22 as analyte, immobilized CD33 wild-type; 1:1 steady state model. How it is done:
We next performed surface plasmon resonance (SPR) measurements on P22 binding to CD33 wild-type, and selected mutants, to obtain detailed kinetic data (see Transparent Methods). The CD33 V-set domain has a free cysteine residue (C36), which caused anomalous results in some of our SPR experiments due to disulfide-linked oligomers forming in solution.
Figure 3 P22 Binding to CD33 Wild-Type and Mutants (A) An example of affinity analysis for 1–243 μM (3-fold dilutions) of P22 binding to immobilized CD33^C36S. Data obtained in duplicate using single-cycle analysis and fit to a steady-state binding model to determine the equilibrium binding constant. (B) An example of affinity analysis of P22 binding to immobilized CD33 wild-type (WT) as per example in (A). (C) Sensorgram data for 0.01–9 μM (3-fold dilutions) of CD33^C36S binding to immobilized P22. Data obtained in triplicate using single concentration cycles and fit to a 1:1 binding model for kinetic analysis. (D) Sensorgram data for 0.03–9 μM (3-fold dilutions) CD33 WT binding to immobilized P22. Data obtained in triplicate using single concentration cycles and fit to a bivalent analyte model for kinetic analysis. Measurements in triplicate showing mean ± SD. […] Data presented are representative of three independent experiments performed in quadruplicate for each compound. […]
A general note: SPR reads the build-up and loss of mass on a sensor chip optically.

T1 sequence (P20138 18-143): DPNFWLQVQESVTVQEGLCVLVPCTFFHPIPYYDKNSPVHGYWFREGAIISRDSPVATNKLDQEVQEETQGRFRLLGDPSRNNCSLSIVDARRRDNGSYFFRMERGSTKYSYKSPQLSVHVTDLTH

The Kd is a measure of binding affinity in units of concentration. High values mean lower affinity, low ones higher affinity. On to `Cc1cc(C(=O)NC[C@@H](O)[C@@H](O)[C@@H]2O[C@@](OC[C@H]3O[C@@H](O[C@H]4[C@H](O)[C@@H](O)[C@H](OCCN)O[C@@H]4CO)[C@H](O)[C@@H](O)[C@H]3O)(C(=O)O)C[C@H](O)[C@H]2NC(=O)Cn2cc(C3CCCCC3)nn2)cc(C)c1O` [P22, β-D-Glucopyranoside, 2-aminoethyl O-[N-[2-(4-cyclohexyl-1H-1,2,3-triazol-1-yl)acetyl]-9-deoxy-9-[(4-hydroxy-3,5-dimethylbenzoyl)amino]-α-neuraminosyl] (2→6)-O-β-D-galactopyranosyl-(1→4)-], for which the “specificity for human CD33 over other human Siglecs” value with human CD33 is “high specificity”. Moreover, the affinity at CD33 wild-type, expressed as Kd, was 118 ± 41 µM.
